In article PMC4764579, “Structural insights into the mechanism of activation of the TRPV1 channel by a membrane-bound tarantula toxin” (eLife, 2016):
Positions of bridges follow the written chain, without caps; N, C: chain ends. Residues, ends and D or L forms follow the SMILES beside them.

Target: T1, rat TRPV1 (Rattus norvegicus, UniProt O35433)
T1 construct: expressed in transfected cells; host or cells: Xenopus laevis oocytes (cRNA injection, pGEM-HE vector)
Test: Two-electrode voltage clamp recordings of oocytes expressing TRPV1, toxin current normalised to saturating capsaicin
Format: cell-based
Details: concentration-response, see Figure 3F
Text: Figure 3. Validation of the proposed structural model of the TRPV1-DkTx complex. Close-up of K1 (A) and K2 (B) in the top-ranking ROSETTA model of DkTx bound to TRPV1. Side chains of TRPV1 residues where mutation disrupts DkTx-induced channel activation (I599, F649, A657 and F659) ([Bohlen et al., 2010]) are highlighted in purple. (C) Representative time courses of TRPV1 activation at +120 mV by either DkTx (left panel), K1K1 (middle panel) or K2K2 (right panel) measured from a train of voltage-ramps in the whole-cell configuration with the TRPV1 expressed in HEK cells. […] Fractional dissociation 1 min after toxin removal was quantified across cells as the current amplitude 1 min after toxin removal divided by the steady-state current amplitude in the presence of the toxin. […] Activation of the full-length TRPV1 channel by the toxin at different concentrations was measured in oocytes at a holding voltage of −60 mV. […]
Xenopus laevis oocytes were surgically removed and gently shaken for 60 min in a solution of 82.5 mM NaCl, 2.5 mM KCl, 1 mM MgCl2, 5 mM HEPES and 2 mg/mL collagenase. […] TRPV1 activity was recorded under voltage clamp using a two-electrode voltage clamp (OC-725C; Warner Instruments) in a 150-μL recording chamber. The recorded data were filtered at 1 kHz and digitized at 5 kHz using a digidata analog/digital converter and pClamp software (Molecular Devices). […]

T1 sequence (O35433 whole entry): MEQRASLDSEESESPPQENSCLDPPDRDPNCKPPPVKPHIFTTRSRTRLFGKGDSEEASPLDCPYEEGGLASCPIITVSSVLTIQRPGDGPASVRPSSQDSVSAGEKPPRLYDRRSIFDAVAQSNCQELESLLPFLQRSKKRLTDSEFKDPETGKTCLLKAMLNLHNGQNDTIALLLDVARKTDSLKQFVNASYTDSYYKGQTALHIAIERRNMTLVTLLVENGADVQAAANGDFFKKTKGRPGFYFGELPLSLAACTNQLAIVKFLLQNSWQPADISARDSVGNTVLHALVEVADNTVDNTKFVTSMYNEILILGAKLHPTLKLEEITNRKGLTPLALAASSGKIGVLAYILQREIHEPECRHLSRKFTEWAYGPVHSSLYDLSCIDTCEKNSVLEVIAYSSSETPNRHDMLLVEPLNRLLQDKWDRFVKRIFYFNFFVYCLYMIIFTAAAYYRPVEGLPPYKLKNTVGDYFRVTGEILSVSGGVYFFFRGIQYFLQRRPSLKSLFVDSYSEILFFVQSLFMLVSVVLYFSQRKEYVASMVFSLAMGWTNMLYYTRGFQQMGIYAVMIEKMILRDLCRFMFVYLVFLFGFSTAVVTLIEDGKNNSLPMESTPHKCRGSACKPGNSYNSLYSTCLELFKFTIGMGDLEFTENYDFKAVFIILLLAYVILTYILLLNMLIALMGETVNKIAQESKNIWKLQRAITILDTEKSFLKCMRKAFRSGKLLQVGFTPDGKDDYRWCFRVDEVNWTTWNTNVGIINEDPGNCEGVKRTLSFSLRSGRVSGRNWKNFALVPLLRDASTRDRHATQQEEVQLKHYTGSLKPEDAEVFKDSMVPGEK

Compound: CC[C@H](C)[C@@H]1NC(=O)[C@H](Cc2ccccc2)NC(=O)[C@H](C)NC(=O)[C@H](CC(C)C)NC(=O)[C@@H]2CCCN2C(=O)[C@@H]2CSSC[C@@H]3NC(=O)[C@H](C(C)C)NC(=O)[C@H](CCC(=O)O)NC(=O)CNC(=O)[C@H](CCC(=O)O)NC(=O)[C@H](CCCCN)NC(=O)[C@H](C)NC(=O)[C@@H](NC(=O)[C@@H](N)CC(N)=O)CSSC[C@H](NC(=O)[C@H](CSSC[C@@H](C(=O)N[C@@H](CCC(=O)O)C(=O)N[C@@H](CCCCN)C(=O)N[C@@H](Cc4ccc(O)cc4)C(=O)N[C@@H](CCCNC(=N)N)C(=O)O)NC(=O)[C@H](Cc4ccc(O)cc4)NC(=O)[C@@H]4CCCN4C1=O)NC(=O)[C@H](CCCCN)NC(=O)[C@H](CO)NC(=O)CNC(=O)[C@H](Cc1c[nH]c4ccccc14)NC(=O)CNC3=O)C(=O)N[C@@H](Cc1c[nH]cn1)C(=O)NCC(=O)N[C@@H](CC(C)C)C(=O)N[C@@H](CC(=O)O)C(=O)N2 [K2] (H-NCAKEGEVCGWGSKCCHGLDCPLAFIPYCEKYR-OH; disulfide 2-16, 9-21, 15-29 (inferred); N-terminus and C-terminus assumed)
- concentration range where activation of TRPV1 saturates (in words): low micromolar range
